Paper PMC8881573, “Inhibition of SRP-dependent protein secretion by the bacterial alarmone (p)ppGpp” (Nature Communications, 2022)

Experiments:
(Ec)FtsY-NG = molecular target: T1, (Ec)FtsY-NG (Escherichia coli, UniProt P10121); test: Isothermal titration calorimetry (ITC) of nucleotide binding; design: species or system E. coli; conditions: NG domain, 25 °C, one set of sites model
T1 construct: purified NG domains of (Ec)Ffh, (Ec)FtsY and (Bs)Ffh; His6 (C); made in house; host or cells: E. coli BL21 (DE3)
T1 sequence (P10121 197-497): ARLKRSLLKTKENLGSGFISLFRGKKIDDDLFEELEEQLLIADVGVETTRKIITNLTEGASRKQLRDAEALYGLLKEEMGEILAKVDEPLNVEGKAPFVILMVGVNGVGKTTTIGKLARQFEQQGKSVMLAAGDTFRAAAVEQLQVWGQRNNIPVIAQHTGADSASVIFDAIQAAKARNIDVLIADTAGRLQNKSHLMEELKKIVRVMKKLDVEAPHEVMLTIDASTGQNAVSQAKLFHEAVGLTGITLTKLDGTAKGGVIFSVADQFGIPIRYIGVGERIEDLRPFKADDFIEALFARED
Procedure: (§1) Ligands and proteins (purified NG domains of (Ec)Ffh, (Ec)FtsY and (Bs)Ffh) were diluted with a buffer containing 20 mM HEPES-Na (pH 7.5), 200 mM NaCl, 20 mM MgCl2 and 20 mM KCl. The NG domains of (Ec)Ffh, (Ec)FtsY and (Bs)Ffh were titrated in the sample-cell at a nominal concentration of 25 µM each. The nucleotides GDP, GTP, ppGpp and pppGpp (Jena Bioscience, Germany) were placed in the syringe and their concentrations were predetermined by absorbance at 252 nm to saturate the protein samples during the titrations. All the measurements were performed at 25 °C with the instrument MicroCal PEAQ-ITC (©Malvern Panalytical) with a method consisting of 13 injections (first 0.4 µL, and the rest 3 µL each) and 150 s of spacing. The raw data (see source) were processed with the MicroCal PEAQ-ITC Analysis Software (©Malvern Panalytical) using the “one set of sites” models.

(Bs)Ffh-NG = molecular target: T2, (Bs)Ffh-NG (Bacillus subtilis, UniProt P37105); test: as above; design: species or system B. subtilis; conditions: NG domain, 25 °C, one set of sites model
T2 construct: purified NG domains of (Ec)Ffh, (Ec)FtsY and (Bs)Ffh; His6 (N); made in house; host or cells: E. coli Rosetta pLysS
T2 sequence (P37105 1-297 limits assumed): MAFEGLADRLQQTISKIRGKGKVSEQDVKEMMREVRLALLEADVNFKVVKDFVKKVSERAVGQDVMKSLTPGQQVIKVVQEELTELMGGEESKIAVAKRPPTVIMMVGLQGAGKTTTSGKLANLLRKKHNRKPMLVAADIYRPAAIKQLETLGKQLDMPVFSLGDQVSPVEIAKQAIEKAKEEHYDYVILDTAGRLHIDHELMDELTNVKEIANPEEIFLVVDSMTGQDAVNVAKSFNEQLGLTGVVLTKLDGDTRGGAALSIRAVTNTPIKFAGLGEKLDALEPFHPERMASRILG
Procedure: as §1

`Nc1nc2c(ncn2[C@@H]2O[C@H](COP(=O)(O)OP(=O)(O)O)[C@@H](OP(=O)(O)OP(=O)(O)O)[C@H]2O)c(=O)[nH]1` [ppGpp] gave a Kd ((Ec)FtsY-NG) of 21.7 ± 5.4 µM and a Kd ((Bs)Ffh-NG) of 4.8 ± 1.8 µM.
